From US20250090699A1, “FAP TARGETING CYCLIC PEPTIDES AND CONJUGATES THEREOF” (Novartis AG, priority 2023, published 2025)
Starred links: 1 amine or outer side, 2 acyl side, 3 side chain; linkers in the order of their positions; H or OH if unused. Non-standard residues stand in square brackets, D forms with d. Residues, ends and D or L forms follow the SMILES beside them. Groups on a side chain read outwards from the residue. *: point of attachment. F(4amPEG2NHDOTA-Ga) = gallium complex of (S)-2,2',2''-(10-(1-(4-(2-amino-2-carboxyethyl)phenyl)-3,12-dioxo-5,8-dioxa-2,11-diazatridecan-13-yl)-1,4,7,10-tetraazacyclododecane-1,4,7-triyl)triacetic acid (Phe with 4-aminomethyl-PEG2-DOTA-Ga), O=C([O-])CN1CCN(CC(=O)[O-])CCN(CC(=O)NCCOCCOCC(=O)NCc2ccc(C[C@H](N[*:1])C(=O)[*:2])cc2)CCN(CC(=O)[O-])CC1.[Ga+3]; F(4OEtnHNODAGA-Lu) = lutetium complex of 2,2'-(7-(4-((2-(4-((S)-2-amino-2-carboxyethyl)phenoxy)ethyl)amino)-1-carboxy-4-oxobutyl)-1,4,7-triazonane-1,4-diyl)diacetic acid (Phe with 4-O-ethylamino-NODAGA-Lu); K(COpipzaa) = N6-(4-(carboxymethyl)piperazine-1-carbonyl)-L-lysine, O=C(NCCCC[C@H](N[*:1])C(=O)[*:2])N1CCN(CC(=O)[*:3])CC1; hS(Pr) = O-propyl-L-homoserine, CCCOCC[C@H](N[*:1])C(=O)[*:2]; NOTA = O=C(O)CN1CCN(CC(=O)O)CCN(CC(=O)*)CC1; Phe(4-CH2NH2) = NCc1ccc(C[C@H](N)C(=O)O)cc1; Piperazinyl(4-CH2COOH) = O=C(O)CN1CCN(*)CC1; NMeF = CN[C@@H](Cc1ccccc1)C(=O)O; Ahp(2) = CCCCC[C@H](N)C(=O)O; hSer = N[C@@H](CCO)C(=O)O; AEEA = NCCOCCOCC(=O)O; CO = O=C([*:1])[*:2]; Sar = CNCC(=O)O; Propyl = CCC*

Tests used:
human FAP = molecular target: T1, human FAP (Homo sapiens, UniProt Q12884); assay: Enzymatic FAP competition assay (Z-Gly-Pro-AMC fluorescence), human FAP; format: biochemical; details: read-out: h. FAP, Enz., IC50
T1 construct: the biotinylated His, Avi tag, human FAP (26-760, FAP-H82Q6); His; Avi tag (biotinylated); purchased AcroBiosystems FAP-H82Q6
T1 sequence (Q12884 26-760): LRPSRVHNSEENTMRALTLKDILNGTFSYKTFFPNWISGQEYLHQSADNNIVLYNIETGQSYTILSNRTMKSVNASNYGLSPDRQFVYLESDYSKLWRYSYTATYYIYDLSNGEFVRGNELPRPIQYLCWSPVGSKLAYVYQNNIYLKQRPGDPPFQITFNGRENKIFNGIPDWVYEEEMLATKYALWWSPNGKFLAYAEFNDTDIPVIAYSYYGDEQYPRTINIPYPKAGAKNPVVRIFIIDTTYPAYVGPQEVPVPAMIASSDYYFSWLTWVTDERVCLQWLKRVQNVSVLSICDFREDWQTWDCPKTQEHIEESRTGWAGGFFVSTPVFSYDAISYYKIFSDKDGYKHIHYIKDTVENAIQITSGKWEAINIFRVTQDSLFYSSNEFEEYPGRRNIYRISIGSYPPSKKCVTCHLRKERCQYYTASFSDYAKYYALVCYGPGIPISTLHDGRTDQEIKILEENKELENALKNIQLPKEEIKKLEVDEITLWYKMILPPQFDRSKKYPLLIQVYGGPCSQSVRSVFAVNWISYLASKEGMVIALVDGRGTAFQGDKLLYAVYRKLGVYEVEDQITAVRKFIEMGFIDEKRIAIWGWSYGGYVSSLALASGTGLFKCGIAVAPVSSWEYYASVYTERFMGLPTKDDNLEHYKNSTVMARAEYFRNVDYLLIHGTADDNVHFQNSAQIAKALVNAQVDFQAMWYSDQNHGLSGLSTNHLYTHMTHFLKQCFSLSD
Description: (§1) Peptide potencies (IC50) to inhibit the FAP enzymatic activity were determined using a fluorescence-based assay towards the biotinylated His, Avi tag, human FAP (26-760, FAP-H82Q6) and the biotinylated His, Avi tag, mouse FAP (26-761, FAP-M82Q5). Standard assay conditions consisted of 20 μL total volume in white 384-well plates (Greiner, Ref. 784075), in 50 mM phosphate buffer pH 7.5 containing 150 mM NaCl, 0.05% Tween20 and 1% final DMSO. Tested peptides at 14 different concentrations up to 1 μM were added to 0.01 nM human or mouse FAP. The peptides were incubated for 24 hours together with the protein before adding the substrate 50 μM Z-Gly-Pro-AMC (I-1145 from Bachem). Samples were then incubated at 22-24° C. for 4 h before reading the fluorescence at excitation wavelength of 380 nm and emission wavelength of 460 nm using the Tecan Infinite® M1000 PRO. The high control (100% activity) was not containing any peptide, and an internal potent peptide was added at 10 μM concentration for the low control (100% inhibition). IC50 values were calculated by curve fitting using an in-house developed software (Novartis Helios software application) using the method described by Fomenko et al., 2006 (regression algorithms for nonlinear dose-response curve fitting). Following normalization of activity values for the wells to % inhibition (% inhibition=[(high control-sample)/(high control-low control)]x 100). IC50 fitting was carried out from the duplicated points.

mouse FAP [1] = molecular target: T2, mouse FAP (Mus musculus, UniProt P97321); assay: Enzymatic FAP competition assay (Z-Gly-Pro-AMC fluorescence), mouse FAP; format: biochemical; details: read-out: m. FAP, Enz., IC50
T2 construct: biotinylated His, Avi tag, mouse FAP (26-761, FAP-M82Q5); His; Avi tag (biotinylated); purchased AcroBiosystems FAP-M82Q5
T2 sequence (P97321 26-761): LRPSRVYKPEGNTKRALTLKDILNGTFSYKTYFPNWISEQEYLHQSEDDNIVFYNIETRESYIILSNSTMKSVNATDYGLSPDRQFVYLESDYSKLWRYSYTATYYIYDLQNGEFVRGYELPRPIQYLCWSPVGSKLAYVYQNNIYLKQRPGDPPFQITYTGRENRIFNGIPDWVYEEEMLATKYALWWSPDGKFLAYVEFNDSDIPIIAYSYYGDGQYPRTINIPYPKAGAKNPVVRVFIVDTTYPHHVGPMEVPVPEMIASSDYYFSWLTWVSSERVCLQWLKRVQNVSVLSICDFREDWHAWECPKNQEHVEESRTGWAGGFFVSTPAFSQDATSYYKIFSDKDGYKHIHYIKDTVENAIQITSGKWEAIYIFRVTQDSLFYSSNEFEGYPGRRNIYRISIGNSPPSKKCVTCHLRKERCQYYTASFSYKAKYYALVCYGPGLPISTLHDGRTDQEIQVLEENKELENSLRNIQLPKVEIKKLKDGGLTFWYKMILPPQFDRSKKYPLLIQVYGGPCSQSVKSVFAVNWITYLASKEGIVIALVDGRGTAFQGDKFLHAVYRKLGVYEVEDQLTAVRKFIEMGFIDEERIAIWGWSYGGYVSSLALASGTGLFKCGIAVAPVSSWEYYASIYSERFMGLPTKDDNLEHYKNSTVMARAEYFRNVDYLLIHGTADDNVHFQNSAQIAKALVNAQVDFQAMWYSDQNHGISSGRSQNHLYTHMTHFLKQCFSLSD
Description: as §1

mouse FAP [2] = molecular target: T2, mouse FAP; assay: Surface plasmon resonance (SPR) for peptide affinity, mouse FAP; format: binding
Description: Peptide affinities (KD) were determined by SPR using a Biacore™ 8K device (Cytiva) towards the following proteins: biotinylated His, Avi tag, human FAP (26-760, FAP-H82Q6), biotinylated His, Avi tag, mouse FAP (26-761, FAP-M82Q5), His tag, human DPP4 (34-766, DP4-H82E3), all purchased from AcroBiosystems and His tag, mouse DPP4 (29-760, 954-SE) from R&D Systems. The FAP proteins and their homologous were diluted to a concentration of 2 μg/mL into acetate buffer pH 5.5, then immobilized onto a CM5 sensorchip (Cytiva, BR-1005-30) to reach a response around 2000 R U. The running buffer HBS-EP+pH 7.6 (20× from Teknova CAT. No: H8022) contained 10 mM HEPES pH 7.6, 150 mM NaCl, 3 mM EDTA, 0.05% Tween20 and 2% DMSO. Experiments were carried out at 25° C. using a flow rate of 30 μL/min. Compounds were tested in single cycle kinetic mode at 8 different concentrations. Curve fitting was performed using the Biacore™ 8K evaluation software. The sensorgrams were fitted by applying a 1:1 binding model to calculate kinetic rate constants and equilibrium dissociation constants (KD).
For this assay, the setup had the same conditions (flow rate, running buffer, peptide dilution) as described above for the CM5 method. The oligo CAP reagent obtained in the CAPture Kit (Ref. 28920234) was 1/5 diluted into running buffer and used with a contact time of 300 s at a flow rate of 2 μL/min. The human and mouse FAP constructs described above were used (from AcroBiosystems or produced in house). The FAP proteins were diluted to a concentration of 2 μg/mL into acetate pH 5.5, 0.05% Tween20 and used with a contact time of 600 s at a flow rate of 10 μL/min. The peptides were tested with an association time of 280 s followed by a dissociation time of 3000 s at a flow rate of 30 μL/min. The regeneration was done using the regeneration solution (8 M guanidine-HCl, 1 M NaOH) as obtained with a contact time of 270 s at a flow rate of 10 μL/min. […] The compounds marked with an asterisk were tested against human and mouse DDP4.

Row | Compound | IC50 (human FAP) | IC50 (mouse FAP [1]) | Kd (mouse FAP [2])
1 | CCCCC[C@@H]1NC(=O)[C@H](Cc2ccc(O)cc2)NC(=O)[C@H](Cc2ccccc2)N(C)C(=O)CNC(=O)CN(C)C(=O)[C@H]2CCCN2C(=O)[C@H](CC(=O)O)NC(=O)[C@H](Cc2ccc(O)cc2)NC(=O)CNC(=O)[C@H](Cc2c[nH]c3ccccc23)NC1=O [Example A73, 2-((9S,12S,15S,18S,24S,27S,32aR)-18-((1H-indol-3-yl)methyl)-9-benzyl-12,24-bis(4-hydroxybenzyl)-2,8-dimethyl-1,4,7,10,13,16,19,22,25,28-decaoxo-15-pentyldotriacontahydropyrrolo[1,2-a][1,4,7,10,13,16,19,22,25,28]decaazacyclotriacontin-27-yl)acetic acid] (cyclo([Ahp(2)]WGYD[dP][Sar]G[NMeF]Y)) | 0.028 nM | 0.101 nM | 0.081 nM
2 | Glu-Gly-NMePhe-F(4amPEG2NHDOTA-Ga)-hS(Pr)-Trp-Gly-K(COpipzaa)-Asp-D-Pro (cyclo(EG[NMeF][F(4amPEG2NHDOTA-Ga)][hS(Pr)]WG[K(COpipzaa)]D[dP]); also: Ga complex of DOTA) [Example C45] | 0.019 nM | 0.06 nM | < 0.023 nM
3 | CCCOCC[C@@H]1NC(=O)[C@H](Cc2ccc(CNC(=O)COCCOCCNC(=O)CN3CCN(CC(=O)O)CCN(CC(=O)O)CC3)cc2)NC(=O)[C@H](Cc2ccccc2)N(C)C(=O)CNC(=O)CNC(=O)[C@H]2CCCN2C(=O)[C@H](CC(=O)O)NC(=O)[C@H](CCCCNC(=O)N2CCN(CC(=O)O)CC2)NC(=O)CNC(=O)[C@H](Cc2c[nH]c3ccccc23)NC1=O [Example B34, Gly-Gly-NMePhe-F(4amPEG2NHNOTA-hS(Pr)-Trp-Gly-K(COpipzaa)-Asp-D-Pro] (cyclo(D[dP]GG[NMeF][Phe(4-CH2NH2)]([AEEA-NOTA])[hSer](Propyl)WGK([CO-Piperazinyl(4-CH2COOH)]))) | 0.007 nM | 0.017 nM | < 0.034 nM
4 | CCCCC[C@@H]1NC(=O)[C@H](Cc2ccc(O)cc2)NC(=O)[C@H](Cc2ccccc2)N(C)C(=O)CNC(=O)CNC(=O)[C@H]2CCCN2C(=O)[C@H](CCC(=O)O)NC(=O)[C@H](Cc2ccc(O)cc2)NC(=O)CNC(=O)[C@H](Cc2c[nH]c3ccccc23)NC1=O [Example A71, Gly-Gly-NMePhe-Tyr-Ahp-Trp-Gly-Tyr-Glu-D-Pro] (cyclo([Ahp(2)]WGYE[dP]GG[NMeF]Y)) | 0.69 nM | 0.61 nM | 0.242 nM
5 | Gly-Gly-NMePhe-F(4OEtnHNODAGA-Lu)-Ahp-Trp-Gly-Tyr-Asp-D-Pro (cyclo(GG[NMeF][F(4OEtnHNODAGA-Lu)][Ahp(2)]WGYD[dP]); also: Lu complex) [Example C30] | 0.034 nM | 0.193 nM | < 0.017 nM
